Results: PMC12679550 (ACS Chemical Neuroscience, 2025)
Read-outs that look alike come from different tables or passages of the source.

Key:
α1AR [1] = biological target: T1, α1AR (Homo sapiens, UniProt P35348); assay: cell-based
T1 sequence (P35348 1-466): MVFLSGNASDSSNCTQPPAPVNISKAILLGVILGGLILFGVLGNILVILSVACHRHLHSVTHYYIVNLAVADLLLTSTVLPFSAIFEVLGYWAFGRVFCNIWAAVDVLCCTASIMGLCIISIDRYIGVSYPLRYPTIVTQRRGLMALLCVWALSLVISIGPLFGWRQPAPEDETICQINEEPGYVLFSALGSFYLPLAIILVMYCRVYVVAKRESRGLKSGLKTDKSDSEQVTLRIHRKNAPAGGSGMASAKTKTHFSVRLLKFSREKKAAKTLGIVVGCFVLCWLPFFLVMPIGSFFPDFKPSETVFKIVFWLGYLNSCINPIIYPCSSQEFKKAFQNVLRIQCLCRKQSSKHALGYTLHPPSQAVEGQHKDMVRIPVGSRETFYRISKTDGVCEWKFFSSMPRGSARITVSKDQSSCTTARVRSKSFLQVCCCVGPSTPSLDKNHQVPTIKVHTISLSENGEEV

human α1Rs = details: in vitro, literature, cited from earlier work
α2AR [2] = biological target: T2, α2AR (Homo sapiens, UniProt P08913); details: α2AR-expressing CHO-K1 cells
T2 sequence (P08913 1-465): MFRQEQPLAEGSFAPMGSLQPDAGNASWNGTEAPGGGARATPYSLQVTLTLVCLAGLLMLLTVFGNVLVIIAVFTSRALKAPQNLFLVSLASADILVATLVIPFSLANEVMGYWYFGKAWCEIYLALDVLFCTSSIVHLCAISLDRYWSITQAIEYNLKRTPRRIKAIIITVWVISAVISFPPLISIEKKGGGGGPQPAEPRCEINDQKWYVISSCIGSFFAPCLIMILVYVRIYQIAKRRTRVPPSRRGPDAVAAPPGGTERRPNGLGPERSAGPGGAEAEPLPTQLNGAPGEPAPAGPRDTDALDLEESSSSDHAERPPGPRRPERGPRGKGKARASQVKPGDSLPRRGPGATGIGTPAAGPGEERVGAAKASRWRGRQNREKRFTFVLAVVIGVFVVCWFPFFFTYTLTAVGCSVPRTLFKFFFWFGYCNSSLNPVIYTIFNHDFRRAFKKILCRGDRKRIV

α2AR [3] = biological target: T2, α2AR; assay: cell-based
human α2Rs = details: in vitro, literature, cited from earlier work
β1 and β2 adrenoceptors = details: in vitro; literature; read-out: Affinity (Kd) at β1 and β2 adrenoceptors; cited from earlier work
μ-opioid receptors = biological target: T3, μ-opioid receptors (Homo sapiens, UniProt P35372); assay: Eurofins Cerep radioligand binding screen; details: 10 μM
T3 construct: Eurofins Cerep; host or cells: cell membrane homogenates
T3 sequence (P35372 whole entry): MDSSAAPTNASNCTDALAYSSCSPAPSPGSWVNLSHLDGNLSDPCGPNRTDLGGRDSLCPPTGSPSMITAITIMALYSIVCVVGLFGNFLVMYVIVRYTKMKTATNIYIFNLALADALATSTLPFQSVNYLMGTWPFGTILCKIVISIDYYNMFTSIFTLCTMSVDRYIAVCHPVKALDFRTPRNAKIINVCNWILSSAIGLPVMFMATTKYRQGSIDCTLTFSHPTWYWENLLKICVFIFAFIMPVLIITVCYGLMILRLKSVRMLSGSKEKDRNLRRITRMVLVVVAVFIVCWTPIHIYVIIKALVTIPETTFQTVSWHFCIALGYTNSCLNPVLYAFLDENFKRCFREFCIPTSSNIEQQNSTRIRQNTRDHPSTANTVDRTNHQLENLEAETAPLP
Description: (§1) The compounds were screened at each target once, in duplicate, at 100 nM and 10 μM. […] The assay was valid if the reliability criteria, K i or IC50 values within 1/2 Log of historical values, were met. Radioligand binding assay methods were as previously described with only minor modifications , (see table in Supplementary Figure S4 for radioligands, protein sources, and assay test conditions). Briefly, cell membrane homogenates were incubated with either an antagonist or agonist radioligand in the absence or presence of the test compound in a buffer. A specific unlabeled agonist or antagonist at the target determined nonspecific binding. Following incubation, the samples were filtered rapidly under vacuum through glass fiber filters presoaked in a buffer and rinsed several times with an ice-cold buffer using a 48-sample or 96-sample cell harvester. Using a scintillation cocktail, the filters were counted for radioactivity in a scintillation counter. Compound binding was calculated as a percent inhibition of the binding of the radioactively labeled ligand specific for each target. Preparatory methods for enzyme inhibition assays were similar to radioligand binding assays. These assays involved using a known substrate, stimulus, and/or tracer, and detection methods included LANCE, fluorimetry, photometry, luminescence, or scintillation counting (see table in Supplementary Figure S4). Results of the screening assays showing an inhibition or stimulation higher than 50% were designated “hits” and considered to represent significant effects of the test compounds.

κ-opioid receptors = biological target: T4, κ-opioid receptors (Homo sapiens, UniProt P41145); assay: Eurofins Cerep radioligand binding screen; details: 10 μM
T4 construct: Eurofins Cerep; host or cells: cell membrane homogenates
T4 sequence (P41145 whole entry): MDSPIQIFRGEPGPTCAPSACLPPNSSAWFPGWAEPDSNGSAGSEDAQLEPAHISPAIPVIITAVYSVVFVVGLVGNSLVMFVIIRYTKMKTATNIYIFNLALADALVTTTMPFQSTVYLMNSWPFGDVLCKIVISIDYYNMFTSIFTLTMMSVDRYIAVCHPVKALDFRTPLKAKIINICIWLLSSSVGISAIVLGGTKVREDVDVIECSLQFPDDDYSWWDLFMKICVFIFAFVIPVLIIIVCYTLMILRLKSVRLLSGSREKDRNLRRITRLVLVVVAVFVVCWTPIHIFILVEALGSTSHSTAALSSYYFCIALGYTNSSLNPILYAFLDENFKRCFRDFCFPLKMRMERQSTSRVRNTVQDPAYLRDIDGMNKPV
Description: as §1

α2BR = biological target: T5, α2BR (Homo sapiens, UniProt P18089); assay: Eurofins Cerep radioligand binding screen; details: 10 μM; also previously reported
T5 construct: Eurofins Cerep; host or cells: cell membrane homogenates
T5 sequence (P18089 whole entry): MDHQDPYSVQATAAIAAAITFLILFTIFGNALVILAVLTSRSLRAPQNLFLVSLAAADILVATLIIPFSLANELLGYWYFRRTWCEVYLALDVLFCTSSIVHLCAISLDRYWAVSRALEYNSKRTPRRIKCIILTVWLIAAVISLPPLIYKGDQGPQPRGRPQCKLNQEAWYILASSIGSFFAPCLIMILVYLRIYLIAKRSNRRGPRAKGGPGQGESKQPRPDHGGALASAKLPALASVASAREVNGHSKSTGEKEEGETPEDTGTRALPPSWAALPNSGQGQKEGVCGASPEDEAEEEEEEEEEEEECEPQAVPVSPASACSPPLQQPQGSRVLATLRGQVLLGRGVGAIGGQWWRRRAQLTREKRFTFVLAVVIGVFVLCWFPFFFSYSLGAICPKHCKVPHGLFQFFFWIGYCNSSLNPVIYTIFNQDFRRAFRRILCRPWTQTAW
Description: as §1

δ-opioid receptors = biological target: T6, δ-opioid receptors (Homo sapiens, UniProt P41143); assay: Eurofins Cerep radioligand binding screen; details: 10 μM
T6 construct: Eurofins Cerep; host or cells: cell membrane homogenates
T6 sequence (P41143 whole entry): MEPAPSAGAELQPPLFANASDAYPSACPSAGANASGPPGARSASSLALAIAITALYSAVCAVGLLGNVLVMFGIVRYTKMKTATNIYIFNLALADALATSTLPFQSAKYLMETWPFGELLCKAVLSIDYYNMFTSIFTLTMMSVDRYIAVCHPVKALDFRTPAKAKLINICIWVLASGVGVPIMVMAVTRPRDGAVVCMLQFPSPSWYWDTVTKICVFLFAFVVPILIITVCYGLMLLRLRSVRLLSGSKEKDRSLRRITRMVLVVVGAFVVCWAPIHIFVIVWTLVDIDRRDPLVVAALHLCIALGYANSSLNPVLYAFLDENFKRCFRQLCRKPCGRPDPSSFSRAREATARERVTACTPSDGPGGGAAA
Description: as §1

α1BR = biological target: T7, α1BR (Homo sapiens, UniProt P35368); assay: Eurofins Cerep radioligand binding screen; details: 10 μM
T7 construct: Eurofins Cerep; host or cells: cell membrane homogenates
T7 sequence (P35368 whole entry): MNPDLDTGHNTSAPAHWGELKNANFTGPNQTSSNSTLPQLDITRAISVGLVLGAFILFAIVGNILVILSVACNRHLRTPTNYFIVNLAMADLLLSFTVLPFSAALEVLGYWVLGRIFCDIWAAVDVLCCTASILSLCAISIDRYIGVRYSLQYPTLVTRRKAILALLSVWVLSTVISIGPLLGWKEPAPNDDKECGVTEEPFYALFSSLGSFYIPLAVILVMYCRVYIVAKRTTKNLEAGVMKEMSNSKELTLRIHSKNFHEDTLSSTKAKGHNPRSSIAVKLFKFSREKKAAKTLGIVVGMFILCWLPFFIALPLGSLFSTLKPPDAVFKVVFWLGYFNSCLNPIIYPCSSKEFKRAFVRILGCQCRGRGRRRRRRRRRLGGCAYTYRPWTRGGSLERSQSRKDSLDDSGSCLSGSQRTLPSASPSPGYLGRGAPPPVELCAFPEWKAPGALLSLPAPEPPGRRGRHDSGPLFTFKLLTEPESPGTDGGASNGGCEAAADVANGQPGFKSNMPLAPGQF
Description: as §1

α1DR = biological target: T8, α1DR (Homo sapiens, UniProt P25100); assay: Eurofins Cerep radioligand binding screen; details: 10 μM
T8 construct: Eurofins Cerep; host or cells: cell membrane homogenates
T8 sequence (P25100 whole entry): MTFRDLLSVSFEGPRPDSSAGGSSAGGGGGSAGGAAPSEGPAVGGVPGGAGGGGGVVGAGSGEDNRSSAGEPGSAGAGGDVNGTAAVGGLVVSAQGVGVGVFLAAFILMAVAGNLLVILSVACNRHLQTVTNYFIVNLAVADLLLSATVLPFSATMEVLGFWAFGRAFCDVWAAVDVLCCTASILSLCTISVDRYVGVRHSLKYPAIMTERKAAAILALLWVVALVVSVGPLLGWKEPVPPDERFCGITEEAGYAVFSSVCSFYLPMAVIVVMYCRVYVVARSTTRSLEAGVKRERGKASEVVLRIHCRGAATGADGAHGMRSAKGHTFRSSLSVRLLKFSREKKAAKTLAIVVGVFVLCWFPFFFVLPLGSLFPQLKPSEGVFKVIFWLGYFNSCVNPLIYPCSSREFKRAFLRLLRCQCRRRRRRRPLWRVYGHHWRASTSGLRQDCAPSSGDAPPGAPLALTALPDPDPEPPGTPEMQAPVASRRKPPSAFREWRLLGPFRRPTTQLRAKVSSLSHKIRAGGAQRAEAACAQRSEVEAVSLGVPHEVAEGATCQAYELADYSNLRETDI
Description: as §1

α1AR [4] = biological target: T1, α1AR; assay: Eurofins Cerep radioligand binding screen; design: Eurofins Cerep; host or cells: cell membrane homogenates; details: 10 μM
Description: as §1

α2AR [5] = biological target: T2, α2AR; assay: Eurofins Cerep radioligand binding screen; design: Eurofins Cerep; host or cells: cell membrane homogenates; details: 10 μM; also previously reported
Description: as §1

any enzyme tested = assay: Eurofins Cerep enzyme inhibition screen, all enzymes tested; assay type: biochemical; details: 10 μM
Description: (§2) The compounds were screened at each target once, in duplicate, at 100 nM and 10 μM. […] The assay was valid if the reliability criteria, K i or IC50 values within 1/2 Log of historical values, were met. Radioligand binding assay methods were as previously described with only minor modifications , (see table in Supplementary Figure S4 for radioligands, protein sources, and assay test conditions). Briefly, cell membrane homogenates were incubated with either an antagonist or agonist radioligand in the absence or presence of the test compound in a buffer. A specific unlabeled agonist or antagonist at the target determined nonspecific binding. Following incubation, the samples were filtered rapidly under vacuum through glass fiber filters presoaked in a buffer and rinsed several times with an ice-cold buffer using a 48-sample or 96-sample cell harvester. Using a scintillation cocktail, the filters were counted for radioactivity in a scintillation counter. Compound binding was calculated as a percent inhibition of the binding of the radioactively labeled ligand specific for each target. Preparatory methods for enzyme inhibition assays were similar to radioligand binding assays. These assays involved using a known substrate, stimulus, and/or tracer, and detection methods included LANCE, fluorimetry, photometry, luminescence, or scintillation counting (see table in Supplementary Figure S4). […]

[6] = tested on: pERK in nontransfected HEK293 cells; assay: ERK phosphorylation in nontransfected, knockout and antagonist-cotreated HEK293 cells; assay type: cell-based, human; details: for pERK, nontransfected HEK293: concentration not given; for pERK-stimulating effect with 100 nM atipamezole cotreatment / pERK-stimulating effect with 100 nM prazosin cotreatment: HEK293; for pERK-stimulating effect with 100 nM prazosin cotreatment: CLON and ISO 1 μM, mitragynine 1 μM
Description: (§3) Cells were serum-starved for 75 min and treated with ligands in 1 mL of fresh DMEM in the absence of serum as described in the figure legends. Cells were washed three times with ice-cold phosphate-buffered saline, lysed on ice in Radio-Immunoprecipitation Assay buffer, centrifuged to clarify the supernatant, normalized to protein concentration, and boiled in Laemmli sample buffer. Following sodium dodecyl sulfate–polyacrylamide gel electrophoresis, gels were transferred, blocked in 5% BSA and incubated with 1:1000 rabbit phospho-ERK1/2 (#9101, Cell Signaling Technology, Danvers, MA) and imaged with enhanced chemiluminescence (ECL). Blots were stripped and reprobed with rabbit ERK1/2 (#9102, Cell Signaling Technology) antibody and imaged with ECL to assess protein loading.

[7] = tested on: pERK in HEK293 cells transfected with human α2ARs; assay: ERK phosphorylation in α2AR-transfected HEK293 cells; assay type: cell-based; details: 1 μM, 5 min
Description: as §3

α2AR [8] = biological target: T2, α2AR; details: agonist mode; CHO-K1 cells
α1A and α1BR = details: read-out: EC50, α1A and α1BR-pERK; a recent report; cited from earlier work
rat α2AR [9] = biological target: T9, rat α2AR (Rattus norvegicus, UniProt P22909); details: agonist mode; HEK293 cells; Figure S2
T9 sequence (P22909 1-465): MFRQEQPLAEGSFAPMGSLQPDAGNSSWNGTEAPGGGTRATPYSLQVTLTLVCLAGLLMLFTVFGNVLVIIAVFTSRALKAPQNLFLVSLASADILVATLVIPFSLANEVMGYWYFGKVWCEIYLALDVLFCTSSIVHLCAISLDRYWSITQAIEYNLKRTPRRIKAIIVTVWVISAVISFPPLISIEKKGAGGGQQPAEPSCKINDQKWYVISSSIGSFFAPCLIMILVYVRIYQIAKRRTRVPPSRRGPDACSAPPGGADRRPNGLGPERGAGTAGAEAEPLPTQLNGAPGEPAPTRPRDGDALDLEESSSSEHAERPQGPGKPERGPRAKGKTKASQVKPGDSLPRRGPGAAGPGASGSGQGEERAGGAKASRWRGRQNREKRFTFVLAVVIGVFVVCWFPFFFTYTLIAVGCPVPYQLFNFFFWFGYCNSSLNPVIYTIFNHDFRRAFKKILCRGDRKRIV

rat α2AR [10] = biological target: T9, rat α2AR; details: agonist mode; CHO-K1 cells
α2AR [11] = biological target: T2, α2AR; details: data not shown
serotonin transporter = biological target: T10, serotonin transporter (Homo sapiens, UniProt P31645); assay: Eurofins Cerep radioligand binding screen; details: 10 μM
T10 construct: Eurofins Cerep; host or cells: cell membrane homogenates
T10 sequence (P31645 whole entry): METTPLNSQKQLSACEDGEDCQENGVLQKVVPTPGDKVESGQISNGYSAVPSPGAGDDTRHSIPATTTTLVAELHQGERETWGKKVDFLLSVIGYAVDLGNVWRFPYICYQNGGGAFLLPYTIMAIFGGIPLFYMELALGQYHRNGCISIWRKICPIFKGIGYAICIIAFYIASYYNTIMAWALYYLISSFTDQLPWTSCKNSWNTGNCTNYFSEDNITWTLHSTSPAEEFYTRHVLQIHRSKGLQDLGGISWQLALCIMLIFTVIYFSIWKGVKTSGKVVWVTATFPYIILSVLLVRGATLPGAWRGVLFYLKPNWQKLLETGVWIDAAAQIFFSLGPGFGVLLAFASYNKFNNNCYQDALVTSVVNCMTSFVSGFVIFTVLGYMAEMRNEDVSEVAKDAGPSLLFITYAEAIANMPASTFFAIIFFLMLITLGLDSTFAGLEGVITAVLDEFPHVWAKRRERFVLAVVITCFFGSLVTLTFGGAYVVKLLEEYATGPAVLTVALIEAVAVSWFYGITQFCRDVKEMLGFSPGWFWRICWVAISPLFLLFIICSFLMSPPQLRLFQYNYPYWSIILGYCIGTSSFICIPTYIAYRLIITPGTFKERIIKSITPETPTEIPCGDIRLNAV
Description: as §1

[12] = tested on: voltage-gated sodium channels; assay: Eurofins Cerep radioligand binding screen; details: 10 μM
Description: as §1

COX2 = biological target: T11, COX2 (Homo sapiens, UniProt P35354); assay: Eurofins Cerep enzyme inhibition screen; assay type: biochemical; details: 10 μM
T11 construct: Eurofins Cerep
T11 sequence (P35354 18-604): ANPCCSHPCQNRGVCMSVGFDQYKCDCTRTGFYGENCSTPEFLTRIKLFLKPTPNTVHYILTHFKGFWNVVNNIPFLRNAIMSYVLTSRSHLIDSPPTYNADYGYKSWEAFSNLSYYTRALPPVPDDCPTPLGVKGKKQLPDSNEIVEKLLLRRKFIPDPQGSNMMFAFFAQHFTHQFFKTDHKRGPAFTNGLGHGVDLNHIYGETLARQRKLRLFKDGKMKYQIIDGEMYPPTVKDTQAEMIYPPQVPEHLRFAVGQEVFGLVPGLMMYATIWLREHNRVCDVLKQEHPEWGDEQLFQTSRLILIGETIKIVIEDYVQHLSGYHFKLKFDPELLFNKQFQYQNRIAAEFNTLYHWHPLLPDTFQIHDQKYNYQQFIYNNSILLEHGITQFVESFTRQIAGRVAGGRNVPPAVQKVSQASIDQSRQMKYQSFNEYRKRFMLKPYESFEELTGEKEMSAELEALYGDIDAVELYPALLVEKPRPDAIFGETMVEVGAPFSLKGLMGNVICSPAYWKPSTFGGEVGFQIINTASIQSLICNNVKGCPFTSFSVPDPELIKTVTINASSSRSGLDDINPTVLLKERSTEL
Description: as §2

[13] = HEK293, read-out: Emax as percent of clonidine's maximum response, α11
[14] = HEK293, read-out: Emax as percent of clonidine's maximum response, αq

## CC(Oc1c(Cl)cccc1Cl)C1=NCCN1 (stereo not shown) [lofexidine]
α1AR [1]; EC50, α11, α1AR-Gα11
  EC50: 112 nM
α1AR [1]; EC50, αq, α1AR-Gαq
  EC50: 95.5 nM
α1AR [1]; [13]
  Emax: 76%
α1AR [1]; [14]
  Emax: 84%

## CCC1(c2cnc[nH]2)Cc2ccccc2C1 [atipamezole]
Human α1Rs; read-out: Affinity (Kd) at each of the α1Rs
  Kd: ≥ 1000 nM
α2AR [2]
  β-arrestin2 recruitment, agonist mode: did not recruit β-arrestin2
α2AR [3]
  Kb: 6.92 nM
Human α2Rs
  Affinity (Kd) at each of the human α2Rs: double-digit nM
β1 and β2 adrenoceptors
  Kd: > 30000 nM

## COc1cc2nc(N3CCN(C(=O)c4ccco4)CC3)nc(N)c2cc1OC [Prazosin, prazosin]
Human α1Rs
  Affinity (Kd) at each of the α1Rs: single-digit nM or higher affinity
Human α2Rs; read-out: Affinity (Kd) at each of the human α2Rs
  Kd: ≥ 300 nM
β1 and β2 adrenoceptors
  Kd: ≥ 8000 nM

## CC[C@@H]1CN2CC[C@@]3(O)C(=Nc4cccc(OC)c43)[C@@H]2C[C@@H]1/C(=C\OC)C(=O)OC [7-Hydroxymitragynine]
μ-opioid receptors
  Inhibition of radioligand binding, μ-opioid receptors: more than 50%
κ-opioid receptors
  Inhibition of radioligand binding, κ-opioid receptors: more than 50%
α2BR
  Inhibition of specific radioligand binding, α2B: less than 15%
δ-opioid receptors
  Inhibition of radioligand binding, δ-opioid receptors: more than 50%
α1BR
  Inhibition of specific radioligand binding, α1B: less than 15%
α1DR
  Inhibition of specific radioligand binding, α1D: less than 15%
α1AR [4]
  Inhibition of specific radioligand binding, α1A: less than 15%
α2AR [5]
  Inhibition of specific radioligand binding, α2A: less than 15%
Any enzyme tested
  Inhibition of the activity of enzymes tested: did not inhibit the activity of any enzyme tested

## Brc1c(NC2=NCCN2)ccc2nccnc12 [UK 14, 304 (brimonidine), brimonidine, reference compound]
α2AR [2]
  β-arrestin2 recruitment, agonist mode: robust α2AR-β-arrestin2 recruitment
[6]
  pERK, nontransfected HEK293: did not increase pERK

## CNC[C@H](O)c1cccc(O)c1 [phenylephrine]
[6]
  pERK, nontransfected HEK293: robust increases in pERK

## CC(C)NCC(O)c1ccc(O)c(O)c1 (stereo not shown) [isoproterenol]
[7]
  pERK relative to buffer, α2AR-transfected HEK293: significantly increased pERK
[6]; 1 μM, 5 min
  pERK relative to buffer, nontransfected HEK293: stimulated pERK
[6]
  pERK-stimulating effect with 100 nM atipamezole cotreatment: not affected
  pERK-stimulating effect with 100 nM prazosin cotreatment: not affected

## Clc1cccc(Cl)c1N=C1NCCN1 [clonidine]
α2AR [8]
  Effect on forskolin-stimulated cAMP, human α2AR: decreased forskolin-stimulated cAMP production
α1A and α1BR
  EC50: < 100 nM
Rat α2AR [9]
  Effect on forskolin-induced cAMP, rat α2AR in HEK293: attenuated forskolin-induced cAMP production
Rat α2AR [10]
  Effect on forskolin-stimulated cAMP, rat α2AR: agonist
α2AR [11]
  Activation of Gαq or Gα11 via α2ARs: no effect
[6]; 1 μM, 5 min, vs CRISPR scrambled
  pERK-stimulating effect in Gαq/11 knockout HEK293 cells: abolished
[6]
  pERK-stimulating effect with 100 nM atipamezole cotreatment: did not affect
  pERK-stimulating effect with 100 nM prazosin cotreatment: abolished
α1AR [1]; [13]
  Emax: 100%
α1AR [1]; [14]
  Emax: 100%

## CC[C@@H]1CN2CCc3c([nH]c4cccc(O)c34)[C@@H]2C[C@@H]1/C(=C\OC)C(=O)OC [9-Hydroxycorynantheidine]
α2BR
  Inhibition of specific radioligand binding, α2B: less than 25%
Serotonin transporter
  Inhibition of radioligand binding, serotonin transporter: ~58%
[12]
  Inhibition of radioligand binding, voltage-gated sodium channels: ~57%
α1DR
  Inhibition of specific radioligand binding, α1D: more than 60%
α1AR [4]
  Inhibition of specific radioligand binding, α1A: more than 60%
α2AR [5]
  Inhibition of specific radioligand binding, α2A: less than 25%
COX2
  Inhibition of COX2: > 70%

## CNC[C@H](O)c1ccc(O)c(O)c1 [epinephrine]
α1AR [1]; [13]
  Emax: 279%
